Columns and labels:
[1] = cited from earlier work; for USP 27/NF22 Solubility: USP 27/NF22 solubility term
[2] = Storage stability of USP <711> dissolution profile at 40° C. and 75% relative humidity; type: physicochemical; settings: FIG. 4; stored at 40° C. and 75% relative humidity up to 2 months; protected from moisture
Experimental: By “pharmaceutically acceptable storage conditions” is meant storage at 25° C. and 60% relative humidity (RH) in a tight, sealed container-enclosure system. The storage conditions employed herein (40° C. and 75% RH) in evaluating formulations are used in the pharmaceutical industry to conduct accelerated stability testing of formulations such that a period of 2 months under these conditions is generally accepted to equal a period of 1 year under pharmaceutically acceptable storage conditions (25° C. and 60% relative humidity).
(§1) USP 27/NF22 specification for magnesium oxide tablets is not less than 75% (O) of the labeled amount of MgO is dissolved in 45 minutes. Dissolution testing is performed using apparatus II with 900 mL of 0.1 N hydrochloric acid maintained at 37° C. and agitated at 75 rpm. Samples are withdrawn at after 45 minutes of testing. The amount of MgO dissolved is then determined using atomic absorption (AA) spectrophotometry at a wavelength of 285.2 nm using filtered portions of the solution under test, diluted with Dissolution Medium. A standard curve is generated using a magnesium standard solution of known concentration in the same medium.
The initial dissolution profile for each of the prior art and present formulations is determined as described herein. […] At monthly intervals, the dissolution profile of the formulations is determined again. […]

[3] = Magnesium oxide tablet monograph USP <711> dissolution; type: physicochemical; settings: FIG. 5; binary mixture of heavy grade magnesium oxide, USP with excipient
Experimental: The following drawings are given by way of illustration only, and thus are not intended to limit the scope of the present invention. The USP27/NF22 monograph for magnesium oxide tablets specifies that the dissolution method is to be executed using the general conditions of chapter <711> with 900 mL of 0.1 N hydrochloric acid, a paddle rotation speed of 75 RPM, and a sampling timepoint of 45 minutes.
as §1

Compound	USP 27/NF22 Solubility [1]	Solubility in Neutral Water [1] [g/100 mL]	dissolution of magnesium from pure magnesium oxide [2]	influence of excipient on dissolution of magnesium [3]
[F-].[F-].[Mg+2] [MgF2]	Practically Insoluble	0.0002	–	–
[O]=[Mg] [MgO, magnesium oxide, reference compound]	Practically Insoluble	0.00062	suitable dissolution	–
O=C([O-])CC(O)(CC(=O)[O-])C(=O)[O-].[Na+].[Na+].[Na+] [sodium citrate]	–	–	–	decrease dissolution
potassium phosphate	–	–	–	decrease dissolution

From patent US20050220865A1, “Compressed composition comprising magnesium salt” (priority 2004, published 2005)
